Source: patent publication US10844069B2, “Pyrrolotriazine compounds as TAM inhibitors” (Incyte Corporation, priority 2016, dated 2020)

Legend:
Axl = Axl (Homo sapiens (Human), UniProt P30530); assay: TAM Enzymatic Assay (HTRF), phosphor-Axl; format: biochemical
Description: Autophosphorylation of Axl was carried out by incubating the recombinant Axl protein (Life Technologies, PV4275) in buffer containing 50 mM Tris, pH7.5, 0.2 mg/ml Axl, 5 mM ATP, 20 mM MgCl2 and 2 mM DTT at room temperature for 1 hour.
(§1) The kinase assay buffer contained 50 mM HEPES, pH7.5, 10 mM MgCl2, 1 mM EGTA, 0.01% NP-40 and 2 mM DTT. 0.1 ul test compounds dissolved in DMSO were transferred from compound plates to white 384-well assay plates (Greiner […] plates). […] 4 ul enzyme solution (or assay buffer for the enzyme blank) was added to the appropriate wells in each plate, and then 4 ul/well substrate solution was added to initiate the reaction. The plate was protected from light and incubated at room temperature for 60 min. […] The plate was incubated for 1 h at room temperature, and HTRF (homogenous time resolved fluorescence) signal was measured on a PHERAstar FS plate reader (BMG labtech). Percentage of inhibition was calculated for each concentration and IC50 value was generated from curve fitting with GraphPad Prism software.

Tyro3 = Tyro3 (Homo sapiens (Human), UniProt Q06418); assay: TAM Enzymatic Assay (HTRF), Tyro3; format: biochemical
Sequence of Tyro3 (Q06418 41-890): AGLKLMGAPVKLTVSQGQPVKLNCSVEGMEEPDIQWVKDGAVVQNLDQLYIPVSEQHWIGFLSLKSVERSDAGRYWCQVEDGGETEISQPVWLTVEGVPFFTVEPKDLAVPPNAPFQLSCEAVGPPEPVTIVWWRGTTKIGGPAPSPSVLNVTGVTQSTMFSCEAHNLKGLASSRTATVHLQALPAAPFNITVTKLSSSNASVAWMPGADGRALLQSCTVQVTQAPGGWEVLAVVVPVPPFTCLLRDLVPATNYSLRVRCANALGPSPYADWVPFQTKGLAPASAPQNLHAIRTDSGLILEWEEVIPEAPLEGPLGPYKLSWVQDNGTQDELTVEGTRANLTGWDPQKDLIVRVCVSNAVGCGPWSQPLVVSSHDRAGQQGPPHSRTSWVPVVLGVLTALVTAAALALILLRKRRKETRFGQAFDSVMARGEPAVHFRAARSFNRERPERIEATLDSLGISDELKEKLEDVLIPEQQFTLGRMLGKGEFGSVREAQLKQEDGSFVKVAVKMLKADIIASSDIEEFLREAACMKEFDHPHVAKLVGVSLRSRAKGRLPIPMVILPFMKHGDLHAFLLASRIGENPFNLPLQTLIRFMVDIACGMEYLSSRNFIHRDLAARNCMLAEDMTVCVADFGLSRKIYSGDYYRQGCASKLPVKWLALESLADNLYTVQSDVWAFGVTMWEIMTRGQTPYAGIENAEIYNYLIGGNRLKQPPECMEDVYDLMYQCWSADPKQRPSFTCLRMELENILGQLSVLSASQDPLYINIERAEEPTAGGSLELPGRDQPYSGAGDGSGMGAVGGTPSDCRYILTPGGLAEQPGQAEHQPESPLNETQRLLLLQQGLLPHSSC
Description: as §1

Sequence of Axl (P30530 26-894): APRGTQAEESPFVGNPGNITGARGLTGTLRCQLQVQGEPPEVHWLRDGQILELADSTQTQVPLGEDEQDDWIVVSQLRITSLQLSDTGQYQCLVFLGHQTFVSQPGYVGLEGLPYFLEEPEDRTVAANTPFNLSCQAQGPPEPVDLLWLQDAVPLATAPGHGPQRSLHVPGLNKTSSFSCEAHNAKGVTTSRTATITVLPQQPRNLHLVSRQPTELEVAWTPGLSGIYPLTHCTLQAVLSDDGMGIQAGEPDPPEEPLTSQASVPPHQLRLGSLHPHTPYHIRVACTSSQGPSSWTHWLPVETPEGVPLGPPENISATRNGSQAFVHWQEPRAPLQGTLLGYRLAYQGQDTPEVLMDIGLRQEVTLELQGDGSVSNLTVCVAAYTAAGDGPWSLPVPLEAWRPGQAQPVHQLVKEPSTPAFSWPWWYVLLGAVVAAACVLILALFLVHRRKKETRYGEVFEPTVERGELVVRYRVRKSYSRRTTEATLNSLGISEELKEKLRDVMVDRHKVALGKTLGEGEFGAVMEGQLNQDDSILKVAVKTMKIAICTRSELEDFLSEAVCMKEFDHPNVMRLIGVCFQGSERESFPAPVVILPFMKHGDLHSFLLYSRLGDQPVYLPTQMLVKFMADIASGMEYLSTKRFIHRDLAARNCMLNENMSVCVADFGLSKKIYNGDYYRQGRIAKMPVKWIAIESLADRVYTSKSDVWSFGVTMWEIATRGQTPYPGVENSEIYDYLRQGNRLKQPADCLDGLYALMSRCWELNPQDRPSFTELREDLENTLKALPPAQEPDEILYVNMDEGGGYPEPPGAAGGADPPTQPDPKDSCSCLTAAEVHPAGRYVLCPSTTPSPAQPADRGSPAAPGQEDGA

IC50 (Axl): < 5 nM
IC50 (Tyro3): > 100 nM
Structure (SMILES): Cc1cn(C)nc1-n1c(=O)c(C(=O)Nc2ccc(-c3cc(C4CCN(C(=O)C(C)C)CC4)n4ncnc(N)c34)cc2)cn(C(C)C)c1=O [Example 138, N-(4-(4-Amino-7-(1-isobutyrylpiperidin-4-yl)pyrrolo[2,1-f][1,2,4]triazin-5-yl)phenyl)-3-(1,4-dimethyl-1H-pyrazol-3-yl)-1-isopropyl-2,4-dioxo-1,2,3,4-tetrahydropyrimidine-5-carboxamide]
